Assay results published in ChEMBL document CHEMBL5505963, “Novel berberine derivatives as p300 histone acetyltransferase inhibitors in combination treatment for breast cancer” (Eur J Med Chem, 2024).
Values belong to the molecule of their own block, whether it stands above or below them. Calls of active or inactive are those of the source. No cut-off for these calls is given here.

Key:
MCF-10A [1] = experiment: Antiproliferative activity against human MCF-10A cells assessed as inhibition of cell growth incubated for 48 hrs by MTT assay; format: functional, cell-based
LNCaP = experiment: Antiproliferative activity against human LNCaP cells assessed as inhibition of cell growth incubated for 48 hrs by MTT assay; format: functional, cell-based
MCF7 [2] = experiment: Antiproliferative activity against human MCF7 cells assessed as inhibition of cell growth incubated for 48 hrs by MTT assay; format: functional, cell-based; conditions: MCF7, 48 h
PANC-1 = experiment: Antiproliferative activity against human PANC-1 cells assessed as inhibition of cell growth incubated for 48 hrs by MTT assay; format: functional, cell-based; conditions: PANC-1, 48 h
[3] = target: Histone acetyltransferase p300 (Homo sapiens, UniProt Q09472); experiment: Inhibition of p300 HAT (unknown origin) using 3H-acetyl-CoA as substrate assessed as H3 peptide acetylation preincubated with compound for 15 mins followed by substrate addition and measured after 30 mins by microbeta scintillation counter analysis
MCF7 [4] = experiment: Synergistic antiproliferative activity against human MCF7 cells assessed as combination index at 20 uM incubated for 48 hrs in presence of 2 microg/ml doxorubicin by Chou-Talalay method; format: functional
MCF7 [5] = experiment: Induction of apoptosis in human MCF7 cells assessed as upregulation of cleaved caspase 3 level at 40 uM incubated for 24 hrs in presence of doxorubicin by Western blot analysis; format: functional, cell-based
MCF7 [6] = experiment: Inhibition of cell migration in human MCF7 cells assessed as measured after 24 hrs in presence of doxorubicin by microscopic analysis; format: functional
MCF7 [7] = experiment: Downregulation of c-Myc level in human MCF7 cells at 40 uM incubated for 24 hrs in presence of doxorubicin by Western blot analysis; format: functional, cell-based
MCF7 [8] = experiment: Synergistic antiproliferative activity against human MCF7 cells assessed as combination index at 5 uM incubated for 48 hrs in presence of 2.5 microg/ml doxorubicin by Chou-Talalay method; format: functional
MCF7 [9] = experiment: Synergistic antiproliferative activity against human MCF7 cells assessed as combination index at 10 uM incubated for 48 hrs in presence of 2 microg/ml doxorubicin by Chou-Talalay method; format: functional
MCF7 [10] = experiment: Synergistic antiproliferative activity against human MCF7 cells assessed as combination index at 5 uM incubated for 48 hrs in presence of 1 microg/ml doxorubicin by Chou-Talalay method; format: functional
MCF7 [11] = experiment: Synergistic antiproliferative activity against human MCF7 cells assessed as reduction in cell viability at 5 to 20 uM incubated for 48 hrs in presence of 40 microg/ml doxorubicin by MTT assay; format: functional; conditions: dose 5-20 µM
MCF7 [12] = experiment: Inhibition of cell invasion in human MCF7 cells measured after 24 hrs in presence of doxorubicin by crystal violet staining based microscopic analysis; format: functional
MCF7 [13] = experiment: Synergistic antiproliferative activity against human MCF7 cells assessed as combination index at 5 uM incubated for 48 hrs in presence of 1.5 microg/ml doxorubicin by Chou-Talalay method; format: functional
MCF7 [14] = experiment: Inhibition of cell invasion in human MCF7 cells measured after 24 hrs by crystal violet staining based microscopic analysis; format: functional
MCF7 [15] = experiment: Downregulation of H3K27 level in human MCF7 cells incubated for 24 hrs by Western blot analysis; format: functional, cell-based; conditions: dose <= 160.0 µM
MCF7 [16] = experiment: Downregulation of survivin level in human MCF7 cells at 40 uM incubated for 24 hrs in presence of doxorubicin by Western blot analysis; format: functional, cell-based
MCF7 [17] = experiment: Synergistic antiproliferative activity against human MCF7 cells assessed as combination index at 40 uM incubated for 48 hrs in presence of 0.5 microg/ml doxorubicin by Chou-Talalay method; format: functional
MCF7 [18] = experiment: Synergistic antiproliferative activity against human MCF7 cells assessed as combination index at 20 uM incubated for 48 hrs in presence of 1.5 microg/ml doxorubicin by Chou-Talalay method; format: functional
MCF7 [19] = experiment: Synergistic antiproliferative activity against human MCF7 cells assessed as combination index at 20 uM incubated for 48 hrs in presence of 1 microg/ml doxorubicin by Chou-Talalay method; format: functional
MCF7 [20] = experiment: Synergistic antiproliferative activity against human MCF7 cells assessed as combination index at 20 uM incubated for 48 hrs in presence of 3 microg/ml doxorubicin by Chou-Talalay method; format: functional
MCF7 [21] = experiment: Synergistic antiproliferative activity against human MCF7 cells assessed as combination index at 20 uM incubated for 48 hrs in presence of 2.5 microg/ml doxorubicin by Chou-Talalay method; format: functional
MCF7 [22] = experiment: Synergistic antiproliferative activity against human MCF7 cells assessed as combination index at 10 uM incubated for 48 hrs in presence of 2.5 microg/ml doxorubicin by Chou-Talalay method; format: functional
MCF7 [23] = experiment: Inhibition of cell migration in human MCF7 cells assessed as reduction in scratch measured after 24 hrs by microscopic analysis; format: functional
MCF7 [24] = experiment: Synergistic antiproliferative activity against human MCF7 cells assessed as combination index at 40 uM incubated for 48 hrs in presence of 1 microg/ml doxorubicin by Chou-Talalay method; format: functional
MCF7 [25] = experiment: Antitumor activity against human MCF7 cells xenografted in BALB/c nude mouse assessed as tumor growth inhibition at 50 mg/kg, ip measured upto 14 days; format: functional; conditions: MCF7, 336 h, time <= 14 day, read-out: TGI
MCF7 [26] = experiment: Synergistic antiproliferative activity against human MCF7 cells assessed as combination index at 5 uM incubated for 48 hrs in presence of 2 microg/ml doxorubicin by Chou-Talalay method; format: functional
MCF7 [27] = experiment: Antiproliferative activity against human MCF7 cells assessed as inhibition of cell proliferation incubated for 48 hrs by MTT assay; format: functional, cell-based; conditions: MCF7, 48 h
MCF7 [28] = experiment: Synergistic antiproliferative activity against human MCF7 cells assessed as combination index at 10 uM incubated for 48 hrs in presence of 3 microg/ml doxorubicin by Chou-Talalay method; format: functional
MCF7 [29] = experiment: Synergistic antiproliferative activity against human MCF7 cells assessed as reduction in cell viability at 5 to 20 uM incubated for 48 hrs in presence of 1 microg/ml doxorubicin by MTT assay; format: functional; conditions: dose 5-20 µM
[30] = Toxicity in BALB/c nude mouse xenografted with human MCF7 cells assessed as loss of body weight at 50 mg/kg, ip measured upto 14 days; format: organism-based; conditions: in vivo, 336 h, time < 14 day
MCF7 [31] = experiment: Synergistic antiproliferative activity against human MCF7 cells assessed as combination index at 10 uM incubated for 48 hrs in presence of 1.5 microg/ml doxorubicin by Chou-Talalay method; format: functional
MCF7 [32] = experiment: Induction of apoptosis in human MCF7 cells assessed as upregulation of cleaved PARP level at 40 uM incubated for 24 hrs in presence of doxorubicin by Western blot analysis; format: functional, cell-based
MCF7 [33] = experiment: Synergistic antiproliferative activity against human MCF7 cells assessed as combination index at 5 uM incubated for 48 hrs in presence of 3 microg/ml doxorubicin by Chou-Talalay method; format: functional
MCF7 [34] = experiment: Synergistic antiproliferative activity against human MCF7 cells assessed as combination index at 20 uM incubated for 48 hrs in presence of 0.5 microg/ml doxorubicin by Chou-Talalay method; format: functional
MCF7 [35] = experiment: Synergistic antiproliferative activity against human MCF7 cells assessed as combination index at 10 uM incubated for 48 hrs in presence of 1 microg/ml doxorubicin by Chou-Talalay method; format: functional
MCF7 [36] = experiment: Antitumor activity against human MCF7 cells xenografted in BALB/c nude mouse assessed as tumor growth inhibition at 50 mg/kg, ip measured upto 14 days in presence of doxorubicin; format: functional; conditions: MCF7, 336 h, time <= 14 day, read-out: TGI
MCF7 [37] = experiment: Synergistic antiproliferative activity against human MCF7 cells assessed as combination index at 10 uM incubated for 48 hrs in presence of 0.5 microg/ml doxorubicin by Chou-Talalay method; format: functional
MCF7 [38] = experiment: Downregulation of H3K27 level in human MCF7 cells upto 160 uM incubated for 24 hrs in presence of doxorubicin by Western blot analysis; format: functional, cell-based
MCF7 [39] = experiment: Synergistic antiproliferative activity against human MCF7 cells assessed as combination index at 40 uM incubated for 48 hrs in presence of 3 microg/ml doxorubicin by Chou-Talalay method; format: functional
MCF7 [40] = experiment: Synergistic antiproliferative activity against human MCF7 cells assessed as combination index at 40 uM incubated for 48 hrs in presence of 1.5 microg/ml doxorubicin by Chou-Talalay method; format: functional
MCF7 [41] = experiment: Synergistic antiproliferative activity against human MCF7 cells assessed as combination index at 5 uM incubated for 48 hrs in presence of 0.5 microg/ml doxorubicin by Chou-Talalay method; format: functional
MCF7 [42] = experiment: Synergistic antiproliferative activity against human MCF7 cells assessed as combination index at 40 uM incubated for 48 hrs in presence of 2 microg/ml doxorubicin by Chou-Talalay method; format: functional
MCF7 [43] = experiment: Synergistic antiproliferative activity against human MCF7 cells assessed as reduction in cell viability at 5 to 20 uM incubated for 48 hrs in presence of 2.5 microg/ml doxorubicin by MTT assay; format: functional; conditions: dose 5-20 µM
MCF7 [44] = experiment: Synergistic antiproliferative activity against human MCF7 cells assessed as combination index at 40 uM incubated for 48 hrs in presence of 2.5 microg/ml doxorubicin by Chou-Talalay method; format: functional
MCF-10A [45] = experiment: Antiproliferative activity against human MCF-10A cells assessed as inhibition of cell growth at 50 uM incubated for 48 hrs by MTT assay relative to control; format: functional

Chain of Histone acetyltransferase p300 (Q09472 whole entry): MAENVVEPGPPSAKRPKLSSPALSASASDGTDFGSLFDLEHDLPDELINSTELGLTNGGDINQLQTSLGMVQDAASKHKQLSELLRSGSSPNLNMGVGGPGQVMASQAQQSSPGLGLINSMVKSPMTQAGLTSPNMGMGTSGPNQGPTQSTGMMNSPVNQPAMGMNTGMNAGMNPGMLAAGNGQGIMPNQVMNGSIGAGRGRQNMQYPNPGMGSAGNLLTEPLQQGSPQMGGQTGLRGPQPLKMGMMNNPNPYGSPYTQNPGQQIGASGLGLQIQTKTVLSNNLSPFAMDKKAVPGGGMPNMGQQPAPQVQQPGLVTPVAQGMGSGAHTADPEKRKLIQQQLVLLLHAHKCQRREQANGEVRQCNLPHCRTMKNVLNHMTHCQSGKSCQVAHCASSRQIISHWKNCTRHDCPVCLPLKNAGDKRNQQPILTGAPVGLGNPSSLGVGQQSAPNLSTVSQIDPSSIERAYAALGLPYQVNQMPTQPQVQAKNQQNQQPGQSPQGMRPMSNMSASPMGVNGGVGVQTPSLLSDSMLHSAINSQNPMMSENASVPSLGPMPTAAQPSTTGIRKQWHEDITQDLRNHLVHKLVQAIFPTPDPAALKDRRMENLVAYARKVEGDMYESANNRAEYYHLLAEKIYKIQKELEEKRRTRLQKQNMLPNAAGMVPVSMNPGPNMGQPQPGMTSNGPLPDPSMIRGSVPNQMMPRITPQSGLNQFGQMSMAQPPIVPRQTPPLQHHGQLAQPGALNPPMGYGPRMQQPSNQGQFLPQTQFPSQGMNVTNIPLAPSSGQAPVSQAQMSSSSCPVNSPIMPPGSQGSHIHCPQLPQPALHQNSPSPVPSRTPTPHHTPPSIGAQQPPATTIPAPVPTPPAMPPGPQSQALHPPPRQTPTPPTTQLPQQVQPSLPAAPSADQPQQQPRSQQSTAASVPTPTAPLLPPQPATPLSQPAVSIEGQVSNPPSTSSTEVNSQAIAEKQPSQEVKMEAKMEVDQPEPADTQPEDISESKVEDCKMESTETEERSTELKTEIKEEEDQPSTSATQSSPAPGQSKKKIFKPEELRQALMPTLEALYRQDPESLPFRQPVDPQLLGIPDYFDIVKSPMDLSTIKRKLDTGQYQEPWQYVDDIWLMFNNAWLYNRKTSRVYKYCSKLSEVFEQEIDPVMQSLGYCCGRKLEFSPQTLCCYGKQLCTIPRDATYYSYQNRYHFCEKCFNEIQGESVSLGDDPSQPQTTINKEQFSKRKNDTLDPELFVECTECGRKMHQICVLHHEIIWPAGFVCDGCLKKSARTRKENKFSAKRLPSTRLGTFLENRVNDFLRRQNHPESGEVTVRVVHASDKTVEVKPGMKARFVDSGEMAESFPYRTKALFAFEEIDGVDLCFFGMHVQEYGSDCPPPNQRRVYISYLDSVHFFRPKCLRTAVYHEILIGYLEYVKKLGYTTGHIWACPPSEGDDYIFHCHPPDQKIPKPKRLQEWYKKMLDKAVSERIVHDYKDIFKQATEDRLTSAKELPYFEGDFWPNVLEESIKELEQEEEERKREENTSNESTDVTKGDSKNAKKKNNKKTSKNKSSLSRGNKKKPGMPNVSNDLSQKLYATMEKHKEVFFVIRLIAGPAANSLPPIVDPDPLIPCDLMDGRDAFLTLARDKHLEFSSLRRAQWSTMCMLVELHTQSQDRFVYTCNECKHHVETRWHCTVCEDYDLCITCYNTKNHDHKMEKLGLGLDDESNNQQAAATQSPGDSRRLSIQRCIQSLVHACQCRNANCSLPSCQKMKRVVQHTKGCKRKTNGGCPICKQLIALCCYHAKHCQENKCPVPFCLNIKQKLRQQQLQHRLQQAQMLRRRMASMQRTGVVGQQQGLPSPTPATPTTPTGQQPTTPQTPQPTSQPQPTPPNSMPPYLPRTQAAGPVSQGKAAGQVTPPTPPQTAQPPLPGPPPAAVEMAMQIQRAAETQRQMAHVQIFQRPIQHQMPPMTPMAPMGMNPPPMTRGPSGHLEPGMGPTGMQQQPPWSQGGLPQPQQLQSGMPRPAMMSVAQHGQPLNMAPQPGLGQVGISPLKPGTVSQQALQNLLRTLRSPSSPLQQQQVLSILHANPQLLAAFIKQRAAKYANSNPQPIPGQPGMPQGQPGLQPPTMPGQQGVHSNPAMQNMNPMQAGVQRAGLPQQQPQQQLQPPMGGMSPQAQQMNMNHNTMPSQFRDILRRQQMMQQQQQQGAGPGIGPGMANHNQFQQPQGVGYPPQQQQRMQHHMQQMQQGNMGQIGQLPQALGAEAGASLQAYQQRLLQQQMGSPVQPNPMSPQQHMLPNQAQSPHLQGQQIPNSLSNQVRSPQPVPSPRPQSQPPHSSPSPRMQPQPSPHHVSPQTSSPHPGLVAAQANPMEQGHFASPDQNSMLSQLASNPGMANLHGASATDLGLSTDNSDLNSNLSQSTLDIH

IC50 (LNCaP): 28.6 µM
IC50 (MCF7 [2]): 34.9 µM
IC50 (PANC-1): 49.5 µM
IC50 [3]: 4.65 µM
SMILES: COc1cc2cc3[n+](cc2cc1OC)CCSc1cc2c(cc1-3)OCO2
IC50 (MCF-10A [1]): > 50 µM

IC50 [3]: > 20 µM
SMILES: COc1cc2cc3[n+](cc2cc1OC)CCCCOc1cc2c(cc1-3)OCO2

IC50 [3]: 17.5 µM
SMILES: COc1cc2cc3[n+](cc2cc1OC)CCN(C(C)=O)c1cc2c(cc1-3)OCO2

IC50 [3]: 5.87 µM
SMILES: COc1cc2cc3[n+](cc2cc1OC)CCOCCOc1cc2c(cc1-3)OCO2

IC50 [3]: 11.3 µM
SMILES: COc1cc2cc3[n+](cc2cc1OC)CCS(=O)(=O)c1cc2c(cc1-3)OCO2

IC50 (MCF7 [27]): 17.3 µM
IC50 (LNCaP): 43.7 µM
IC50 (MCF7 [2]): 17.3 µM
IC50 (PANC-1): > 50 µM
IC50 [3]: 1.51 µM
SMILES: COc1cc2cc3[n+](cc2cc1OC)CCOc1cc2c(cc1-3)OCO2.[Cl-]
IC50 (MCF-10A [1]): > 50 µM
CI (MCF7 [4]): 2.65
Activity (MCF7 [5]): Active
inhibition (INH) (MCF7 [6]): 34.22%
Activity (MCF7 [7]): Active
CI (MCF7 [8]): 57.34
CI (MCF7 [9]): 80.19
CI (MCF7 [10]): 165.98
Activity (MCF7 [11]): 36%
inhibition (MCF7 [12]): Active
CI (MCF7 [13]): 94.38
inhibition (MCF7 [14]): Active
Activity (MCF7 [15]): Dose-Dependent Effect
Activity (MCF7 [16]): Active
CI (MCF7 [17]): 1.85
CI (MCF7 [18]): 3.59
CI (MCF7 [19]): 3.44
CI (MCF7 [20]): 1.86
CI (MCF7 [21]): 2.28
CI (MCF7 [22]): 12.07
inhibition (INH) (MCF7 [23]): 52.05%
CI (MCF7 [24]): 0.59
inhibition in vivo at 50 mg/kg (MCF7 [25]): 59.9%
CI (MCF7 [26]): 113.55
CI (MCF7 [28]): 13.65
Activity (MCF7 [29]): 36%
Activity [30]: Non-Toxic
CI (MCF7 [31]): 38.44
Activity (MCF7 [32]): Active
CI (MCF7 [33]): 39.24
CI (MCF7 [34]): 3.11
CI (MCF7 [35]): 37.99
inhibition in vivo at 50 mg/kg (MCF7 [36]): 83.9%
CI (MCF7 [37]): 88.25
Activity (MCF7 [38]): Active
CI (MCF7 [39]): 0.55
CI (MCF7 [40]): 0.57
CI (MCF7 [41]): 517.04
CI (MCF7 [42]): 0.66
Activity (MCF7 [43]): 27%
CI (MCF7 [44]): 0.6

IC50 (LNCaP): 40.7 µM
IC50 (MCF7 [2]): 29.5 µM
IC50 (PANC-1): 33.7 µM
IC50 [3]: 4.78 µM
SMILES: COc1cc2cc3[n+](cc2cc1OC)CC(C)COc1cc2c(cc1-3)OCO2 (stereo unspecified)
IC50 (MCF-10A [1]): > 50 µM
inhibition at 50 µM (MCF-10A [45]): 77%
